Results as given in patent publication US10428086B2, “Solvated crystal form of rifaximin, production, compositions and uses thereof” (ALFASIGMA S.p.A., priority 2014, dated 2019).

Legend:
[1] = Determination of intrinsic dissolution (European Pharmacopeia Ed. 7.0, 2.9.3); format: physicochemical; conditions: for Intrinsic dissolution: powder of Example 5, Eur. Pharm. 7.0, 2.9.3
Procedure: The determination of the intrinsic dissolution of the powder, which was obtained according to what is described in Example 5, was carried out according to European Pharmacopeia Ed. 7.0, 2010, 2.9.3, page 256, (the disclosure of which is incorporated herein by reference in its entirety), comparing the new crystal of rifaximin τ and amorphous rifaximin and rifaximin polymorph β.

[2] = Dissolution rate at neutral pH (phosphate buffer pH 6.8); format: physicochemical; conditions: for Concentration: 500 mg in 750 ml phosphate buffer pH 6.8, 30°C, 250 rpm
Procedure: An amount of 500 mg of rifaximin τ, 500 mg of rifaximin polymorph α, and 500 mg of amorphous rifaximin were suspended, respectively, in 750 ml of phosphate buffer at pH 6.8 at a temperature of 30±0.5° C. The solutions were stirred for 120 minutes at a stirring rate of 250 rpm. Samples with equal volume were taken at fixed time intervals, filtered and analyzed by spectrophotometer at a wavelength of 430 nm. The rifaximin concentration in the samples was calculated compared to a solution having a known concentration.

[3] = PK / bioavailability study on dogs; format: in vivo, Beagle male dogs; conditions: single oral capsule 100 mg/kg, plasma; for tmax: median values
Procedure: A bioavailability study of rifaximin τ in comparison with rifaximin amorphous and rifaximin polymorph alpha has been carried out on 4 Beagle male dogs, by feeding them a dose of 100 mg/kg of one of the polymorphs or amorphous form. Each animal received a single oral capsule of rifaximin τ, amorphous rifaximin, and rifaximin α with a washout period of seven days between the administration of each form to the same animal. Doses were administered with a […] gelatine capsule followed by 10 ml of drinking water.
Blood was taken at 6 time points up to 24 hours post dose and it was collected into tubes containing lithium heparin anticoagulant.
The plasma has been assayed for rifaximin on the validated LC-MS/MS (Liquid Chromatography-Mass Spectrometry/Mass Spectrometry) method and the maximum plasma concentration observed (Cmax), the time to reach the (Cmax), (tmax), and the area under the concentration-time curve (AUC) have been calculated.

[4] = per oral route; cited from earlier work
[5] = Stability in different humidity environments (XRPD); format: physicochemical; conditions: for Stability of crystal form (XRPD pattern after exposure): 10 days; for Stability on exposure to humidity: humidity levels about 10% to about 90%, about 1 hour to about 10 days
Excerpt: a) The rifaximin τ obtained according to Example 1 was exposed at room temperature to a humidity level of 11%, obtained by means of a saturated solution of LiCl, for a period of time of 10 days.
b) Another crystal of rifaximin τ was exposed to a humidity level of 84%, obtained with a supersaturated aqueous solution of KCl for 10 days.

Compound	Intrinsic dissolution [1]	Concentration ([2]; 5 min)	Concentration ([2]; 15 min)	Concentration ([2]; 30 min)	Concentration ([2]; 60 min)	Concentration ([2]; 120 min)	AUC 0-8h [3]	AUC 0-tlast [3]	Cmax [3]	tmax [3]	other results
CO[C@H]1/C=C/O[C@@]2(C)Oc3c(C)c(O)c4c(O)c(c5c(nc6cc(C)ccn65)c4c3C2=O)NC(=O)/C(C)=C\C=C\[C@H](C)[C@H](O)[C@@H](C)[C@@H](O)[C@@H](C)[C@H](OC(C)=O)[C@@H]1C [Amorphous rifaximin, rifaximin]	0.131 mg/min/cm^2	14400 ng/mL	44000 ng/mL	28700 ng/mL	11000 ng/mL	9100 ng/mL	1318.02 ± 1975.04 ng·h/mL	2337.16 ± 3223.76 ng·h/mL	279.79 ± 378.41 ng/mL	3 h	Effect of added DEGME on measured dissolved rifaximin ([1]; addition of 0.1 ml and 1.25 ml DEGME to the solution contacting the tablet): does not change the measured value of the dissolved rifaximin
CCOCCOCCO [DEGME, 2-(2-ethoxyethoxy)ethanol]											NOAEL (No Observed Adverse Effect Level) [4]: higher than 160 mg/kg of body mass
CO[C@H]1/C=C/O[C@@]2(C)Oc3c(C)c(O)c4c(O)c(c5c(nc6cc(C)ccn65)c4c3C2=O)NC(=O)/C(C)=C\C=C\[C@H](C)[C@H](O)[C@@H](C)[C@@H](O)[C@@H](C)[C@H](OC(C)=O)[C@@H]1C [Rifaximin polymorph β, rifaximin]	0.016 mg/min/cm^2										
CO[C@H]1/C=C/O[C@@]2(C)Oc3c(C)c(O)c4c(O)c(c5c(nc6cc(C)ccn65)c4c3C2=O)NC(=O)/C(C)=C\C=C\[C@H](C)[C@H](O)[C@@H](C)[C@@H](O)[C@@H](C)[C@H](OC(C)=O)[C@@H]1C [Rifaximin α, rifaximin]		1050 ng/mL	3260 ng/mL	4230 ng/mL	4120 ng/mL	3890 ng/mL	7.20 ± 4.00 ng·h/mL	16.86 ± 13.99 ng·h/mL	2.84 ± 1.26 ng/mL	1 h	
CO[C@H]1/C=C/O[C@@]2(C)Oc3c(C)c(O)c4c(O)c(c5c(nc6cc(C)ccn65)c4c3C2=O)NC(=O)/C(C)=C\C=C\[C@H](C)[C@H](O)[C@@H](C)[C@@H](O)[C@@H](C)[C@H](OC(C)=O)[C@@H]1C [Rifaximin τ, rifaximin]		21680 ng/mL	57680 ng/mL	higher than 90 μg/ml	43140 ng/mL	14930 ng/mL					Concentration relative to rifaximin polymorph α ([2]; aqueous solution): about 25 times; Concentration relative to amorphous rifaximin ([2]; pH 6.8, after about 30 minutes): about five times higher; Concentration relative to rifaximin polymorph α or β ([2]; pH 6.8, after about 30 minutes): about twenty times higher; AUC 0-8h ([3]; listed as rifaximin τ): 0 to 35 ng·h/mL; AUC 0-tlast ([3]; listed as rifaximin τ): 20 to 325 ng·h/mL; Cmax ([3]; listed as rifaximin τ): 0 to 35 ng/mL; AUC 0-8h ([3]; listed as τ): 19.93 ± 10.25 ng·h/mL; AUC 0-tlast ([3]; listed as τ): 150.54 ± 172.55 ng·h/mL; Cmax ([3]; listed as τ): 15.70 ± 18.63 ng/mL; tmax ([3]; listed as rifaximin τ): 3 to 7 h; tmax ([3]; listed as τ): 5 h; Stability of crystal form (XRPD pattern after exposure) ([5]; humidity level 11% (saturated LiCl), room temperature): correspond to the X-ray diffraction pattern of FIG. 1; Stability of crystal form (XRPD pattern after exposure) ([5]; humidity level 84% (supersaturated KCl)): correspond to the X-ray diffraction pattern of FIG. 1; Stability on exposure to humidity [5]: does not alter its chemical structure; Stability on exposure to humidity ([5]; listed as rifaximin τ): does not transform its crystallographic parameters and X-ray diffractogram
